Laboratory results taken from PMC6749236, “Synthesis of Novel 2-(Het)arylpyrrolidine Derivatives and Evaluation of Their Anticancer and Anti-Biofilm Activity” (Molecules, 2019).

Legend:
Chang liver cell line = assay: Cytotoxicity assay (Cytell Cell Imaging), normal cell line; assay type: cell-based; conditions: Homo sapiens, read-out: IC50 Normal Cell Line Chang Liver
M-Hela = assay: Cytotoxicity assay (Cytell Cell Imaging, DAPI/propidium iodide), cancer cell line; assay type: cell-based; conditions: Homo sapiens, M-HeLa, read-out: IC50 Cancer Cell Line M-Hela

With `COc1ccc(NC(=O)N2CCCC2c2cc3c(cc2O)OCO3)cc1` (stereo not drawn) [5c, 2-(6-Hydroxybenzo[d][1,3]dioxol-5-yl)-N-(4-methoxyphenyl)pyrrolidine-1-carboxamide] the melting point was 112 to 114 °C, the IC50 (Chang liver cell line) was greater than 100 µM and the IC50 (M-Hela) was greater than 100 µM.
In the case of `O=C(Nc1ccc(Br)cc1)N1CCCC1c1cc2c(cc1O)OCO2` (stereo not drawn) [5d, N-(4-Bromophenyl)-2-(6-hydroxybenzo[d][1,3]dioxol-5-yl)pyrrolidine-1-carboxamide], the melting point is reported as 164 °C, the IC50 (Chang liver cell line) is reported as greater than 100 µM and the IC50 (M-Hela) is reported as greater than 100 µM.
For `O=C(Nc1ccc(F)cc1)N1CCCC1c1cc2c(cc1O)OCO2` (stereo not drawn) [5e, N-(4-Fluorophenyl)-2-(6-hydroxybenzo[d][1,3]dioxol-5-yl)pyrrolidine-1-carboxamide], the melting point was 184 to 185 °C, the IC50 (Chang liver cell line) was greater than 100 µM and the IC50 (M-Hela) was greater than 100 µM.
`CCCCCCNC(=O)N1CCCC1c1cc2c(cc1O)OCO2` (stereo not drawn) [5f, N-Hexyl-2-(6-hydroxybenzo[d][1,3]dioxol-5-yl)pyrrolidine-1-carboxamide] showed a melting point of 91 to 93 °C, an IC50 (Chang liver cell line) greater than 100 µM and an IC50 (M-Hela) greater than 100 µM.
Work on `O=C(NC1CCCCC1)N1CCCC1c1cc2c(cc1O)OCO2` (stereo not drawn) [5g, N-Cyclohexyl-2-(6-hydroxybenzo[d][1,3]dioxol-5-yl)pyrrolidine-1-carboxamide] yielded a melting point of 159 to 160 °C, an IC50 (Chang liver cell line) greater than 100 µM and an IC50 (M-Hela) greater than 100 µM.
In the case of `CCCCCCNC(=O)N1CCCC1c1ccc(Nc2c([N+](=O)[O-])c(Cl)cc3c2no[n+]3[O-])cc1O` (stereo not drawn) [6f, 6-Chloro-4-((4-(1-(hexylcarbamoyl)pyrrolidin-2-yl)-3-hydroxyphenyl)amino)-5-nitrobenzo[c][1,2,5]oxadiazole 1-oxide], the melting point is reported as 121 to 122 °C (dec.), the IC50 (Chang liver cell line) is reported as 57 ± 4.3 µM and the IC50 (M-Hela) is reported as 47 ± 2.9 µM.
For `Cc1cc(O)c(C2CCCN2C(=O)Nc2ccccc2)c(=O)o1` (stereo not drawn) [7b, 2-(4-Hydroxy-6-methyl-2-oxo-2H-pyran-3-yl)-N-phenylpyrrolidine-1-carboxamide], the melting point was 190 to 191 °C, the IC50 (Chang liver cell line) was greater than 100 µM and the IC50 (M-Hela) was greater than 100 µM.
`COc1ccc(NC(=O)N2CCCC2c2c(O)cc(C)oc2=O)cc1` (stereo not drawn) [7c, 2-(4-Hydroxy-6-methyl-2-oxo-2H-pyran-3-yl)-N-(4-methoxyphenyl)pyrrolidine-1-carboxamide] gave a melting point of 168 to 169 °C, an IC50 (Chang liver cell line) greater than 100 µM and an IC50 (M-Hela) greater than 100 µM.
For `Cc1cc(O)c(C2CCCN2C(=O)Nc2ccc(F)cc2)c(=O)o1` (stereo not drawn) [7e, N-(4-Fluorophenyl)-2-(4-hydroxy-6-methyl-2-oxo-2H-pyran-3-yl)pyrrolidine-1-carboxamide], the melting point was 177 to 178 °C, the IC50 (Chang liver cell line) was greater than 100 µM and the IC50 (M-Hela) was greater than 100 µM.
Work on `CCCCCCNC(=O)N1CCCC1c1c(O)cc(C)oc1=O` (stereo not drawn) [7f, N-Hexyl-2-(4-hydroxy-6-methyl-2-oxo-2H-pyran-3-yl)pyrrolidine-1-carboxamide] yielded a melting point of 137 to 138 °C, an IC50 (Chang liver cell line) greater than 100 µM and an IC50 (M-Hela) greater than 100 µM.
In the case of `Cc1cc(O)c(C2CCCN2C(=O)NC2CCCCC2)c(=O)o1` (stereo not drawn) [7g, N-Cyclohexyl-2-(4-hydroxy-6-methyl-2-oxo-2H-pyran-3-yl)pyrrolidine-1-carboxamide], the melting point is reported as 184 to 185 °C, the IC50 (Chang liver cell line) is reported as greater than 100 µM and the IC50 (M-Hela) is reported as greater than 100 µM.
Work on `O=C(Nc1ccccc1)N1CCCC1c1c(O)c2ccccc2oc1=O` (stereo not drawn) [8b, 2-(4-Hydroxy-2-oxo-2H-chromen-3-yl)-N-phenylpyrrolidine-1-carboxamide] yielded a melting point of 179 to 180 °C, an IC50 (Chang liver cell line) greater than 100 µM and an IC50 (M-Hela) greater than 100 µM.
`COc1ccc(NC(=O)N2CCCC2c2c(O)c3ccccc3oc2=O)cc1` (stereo not drawn) [8c, 2-(4-Hydroxy-2-oxo-2H-chromen-3-yl)-N-(4-methoxyphenyl)pyrrolidine-1-carboxamide] showed a melting point of 152 to 153 °C, an IC50 (Chang liver cell line) greater than 100 µM and an IC50 (M-Hela) greater than 100 µM.
Compound `O=C(Nc1ccc(Br)cc1)N1CCCC1c1c(O)c2ccccc2oc1=O` (stereo not drawn) [8d, N-(4-Bromophenyl)-2-(4-hydroxy-2-oxo-2H-chromen-3-yl)pyrrolidine-1-carboxamide] has a melting point of 179 °C, an IC50 (Chang liver cell line) greater than 100 µM and an IC50 (M-Hela) greater than 100 µM.
For `O=C(Nc1ccc(F)cc1)N1CCCC1c1c(O)c2ccccc2oc1=O` (stereo not drawn) [8e, N-(4-Fluorophenyl)-2-(4-hydroxy-2-oxo-2H-chromen-3-yl)pyrrolidine-1-carboxamide], the melting point was 165 °C, the IC50 (Chang liver cell line) was greater than 100 µM and the IC50 (M-Hela) was greater than 100 µM.
For `CCCCCCNC(=O)N1CCCC1c1c(O)c2ccccc2oc1=O` (stereo not drawn) [8f, N-Hexyl-2-(4-hydroxy-2-oxo-2H-chromen-3-yl)pyrrolidine-1-carboxamide], the melting point was 124 to 125 °C, the IC50 (Chang liver cell line) was greater than 100 µM and the IC50 (M-Hela) was greater than 100 µM.
Compound `O=C(NC1CCCCC1)N1CCCC1c1c(O)c2ccccc2oc1=O` (stereo not drawn) [8g, N-Cyclohexyl-2-(4-hydroxy-2-oxo-2H-chromen-3-yl)pyrrolidine-1-carboxamide] has a melting point of 166 to 167 °C, an IC50 (Chang liver cell line) greater than 100 µM and an IC50 (M-Hela) greater than 100 µM.
